# Source: PubChem BioAssay AID2060902 (Molecular Pharmacology Branch, DTP, NCI, 2025)
# System: 485368-065-R3-J5-PDC spheroids with HUVEC/MSC, viability
# Test: Anticancer human tumor 485368-065-R3-J5-PDC patient-derived pancreatic carcinoma cell line growth inhibition [RAS]
# Details: for IC50: curve of first compound; for viability, T/C: stronger effect = lower value
# Outline: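 Tumour cells grown as complex spheroids with HUVEC endothelial cells and mesenchymal stem cells, treated with RAS pathway inhibitor combinations. Each agent spans half-log steps from near clinical Cmax, or 10 microM where Cmax is unknown.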
# [1] = second compound 0.000949 µM, first compound 0.00316 µM
# [2] = second compound 0.000949 µM, first compound 0.01 µM
# [3] = second compound 0.000949 µM, first compound 0.0316 µM
# [4] = second compound 0.000949 µM, first compound 0.1 µM
# [5] = second compound 0.000949 µM, first compound 0.316 µM
# [6] = second compound 0.000949 µM, first compound 1 µM
# [7] = second compound 0.003 µM, first compound 0.00316 µM
# [8] = second compound 0.003 µM, first compound 0.01 µM
# [9] = second compound 0.003 µM, first compound 0.0316 µM
# [10] = second compound 0.003 µM, first compound 0.1 µM
# [11] = second compound 0.003 µM, first compound 0.316 µM
# [12] = second compound 0.003 µM, first compound 1 µM
# [13] = second compound 0.00949 µM, first compound 0.00316 µM
# [14] = second compound 0.00949 µM, first compound 0.01 µM
# [15] = second compound 0.00949 µM, first compound 0.0316 µM
# [16] = second compound 0.00949 µM, first compound 0.1 µM
# [17] = second compound 0.00949 µM, first compound 0.316 µM
# [18] = second compound 0.00949 µM, first compound 1 µM
# [19] = second compound 0.03 µM, first compound 0.00316 µM
# [20] = second compound 0.03 µM, first compound 0.01 µM
# [21] = second compound 0.03 µM, first compound 0.0316 µM
# [22] = second compound 0.03 µM, first compound 0.1 µM
# [23] = second compound 0.03 µM, first compound 0.316 µM
# [24] = second compound 0.03 µM, first compound 1 µM
# [25] = second compound 0.0949 µM, first compound 0.00316 µM
# [26] = second compound 0.0949 µM, first compound 0.01 µM
# [27] = second compound 0.0949 µM, first compound 0.0316 µM
# [28] = second compound 0.0949 µM, first compound 0.1 µM
# [29] = second compound 0.0949 µM, first compound 0.316 µM
# [30] = second compound 0.0949 µM, first compound 1 µM
# [31] = second compound 0.3 µM, first compound 0.00316 µM
# [32] = second compound 0.3 µM, first compound 0.01 µM
# [33] = second compound 0.3 µM, first compound 0.0316 µM
# [34] = second compound 0.3 µM, first compound 0.1 µM
# [35] = second compound 0.3 µM, first compound 0.316 µM
# [36] = second compound 0.3 µM, first compound 1 µM
# 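Further: spheroids exposed to agents for seven days before readout.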
smiles,measurement,setting,value
C=CC(=O)N1CCN(c2nc(OCC3CCCN3C)nc3c(F)c(-c4nc(N)cc(C)c4C(F)(F)F)c(Cl)cc23)C(C)C1 (stereo unspecified) + CCn1c(-c2cc(N3CCN(C)CC3)cnc2C(C)OC)c2c3cc(ccc31)-c1csc(n1)CC(NC(=O)C1CC1C)C(=O)N1CCCC(N1)C(=O)OCC(C)(C)C2,IC50,second compound 0.000949 µM,< 3.16 nM
same,IC50,second compound 0.003 µM,< 3.16 nM
same,IC50,second compound 0.00949 µM,< 3.16 nM
same,IC50,second compound 0.03 µM,< 3.16 nM
same,IC50,second compound 0.0949 µM,< 3.16 nM
same,IC50,second compound 0.3 µM,< 3.16 nM
same,"viability, T/C",[1],32.9%
same,"viability, T/C",[2],35.6%
same,"viability, T/C",[3],36.7%
same,"viability, T/C",[4],29.5%
same,"viability, T/C",[5],30.1%
same,"viability, T/C",[6],38.9%
same,"viability, T/C",[7],23.4%
same,"viability, T/C",[8],21.4%
same,"viability, T/C",[9],21.2%
same,"viability, T/C",[10],20.9%
same,"viability, T/C",[11],20.9%
same,"viability, T/C",[12],19.6%
same,"viability, T/C",[13],17.3%
same,"viability, T/C",[14],18.3%
same,"viability, T/C",[15],15.8%
same,"viability, T/C",[16],15.6%
same,"viability, T/C",[17],18%
same,"viability, T/C",[18],15.2%
same,"viability, T/C",[19],12.1%
same,"viability, T/C",[20],11.4%
same,"viability, T/C",[21],12.5%
same,"viability, T/C",[22],12.9%
same,"viability, T/C",[23],12.8%
same,"viability, T/C",[24],15.7%
same,"viability, T/C",[25],10%
same,"viability, T/C",[26],12.6%
same,"viability, T/C",[27],11.2%
same,"viability, T/C",[28],9.36%
same,"viability, T/C",[29],9.84%
same,"viability, T/C",[30],12.7%
same,"viability, T/C",[31],10.8%
same,"viability, T/C",[32],9.38%
same,"viability, T/C",[33],9%
same,"viability, T/C",[34],8.35%
same,"viability, T/C",[35],10.7%
same,"viability, T/C",[36],11%
CC1(C)CCC(Nc2ncc(C(F)(F)F)c(-c3c[nH]c4c(P(C)(C)=O)c(C#N)ccc34)n2)CN1 (stereo unspecified) + CCn1c(-c2cc(N3CCN(C)CC3)cnc2C(C)OC)c2c3cc(ccc31)-c1csc(n1)CC(NC(=O)C1CC1C)C(=O)N1CCCC(N1)C(=O)OCC(C)(C)C2,IC50,second compound 0.000949 µM,< 0.949 nM
same,IC50,second compound 0.003 µM,< 0.949 nM
same,IC50,second compound 0.00949 µM,< 0.949 nM
same,IC50,second compound 0.03 µM,< 0.949 nM
same,IC50,second compound 0.0949 µM,< 0.949 nM
same,IC50,second compound 0.3 µM,< 0.949 nM
same,"viability, T/C","second compound 0.000949 µM, first compound 0.000949 µM",48.5%
same,"viability, T/C","second compound 0.000949 µM, first compound 0.003 µM",36.9%
same,"viability, T/C","second compound 0.000949 µM, first compound 0.00949 µM",26.8%
same,"viability, T/C","second compound 0.000949 µM, first compound 0.03 µM",31%
same,"viability, T/C","second compound 0.000949 µM, first compound 0.0949 µM",31.2%
same,"viability, T/C","second compound 0.000949 µM, first compound 0.3 µM",30.4%
same,"viability, T/C","second compound 0.003 µM, first compound 0.000949 µM",24.4%
same,"viability, T/C","second compound 0.003 µM, first compound 0.003 µM",26.2%
same,"viability, T/C","second compound 0.003 µM, first compound 0.00949 µM",24.3%
same,"viability, T/C","second compound 0.003 µM, first compound 0.03 µM",23.6%
same,"viability, T/C","second compound 0.003 µM, first compound 0.0949 µM",26.9%
same,"viability, T/C","second compound 0.003 µM, first compound 0.3 µM",27.4%
same,"viability, T/C","second compound 0.00949 µM, first compound 0.000949 µM",17.1%
same,"viability, T/C","second compound 0.00949 µM, first compound 0.003 µM",19%
same,"viability, T/C","second compound 0.00949 µM, first compound 0.00949 µM",19.6%
same,"viability, T/C","second compound 0.00949 µM, first compound 0.03 µM",19.9%
same,"viability, T/C","second compound 0.00949 µM, first compound 0.0949 µM",24.5%
same,"viability, T/C","second compound 0.00949 µM, first compound 0.3 µM",21.1%
same,"viability, T/C","second compound 0.03 µM, first compound 0.000949 µM",14%
same,"viability, T/C","second compound 0.03 µM, first compound 0.003 µM",18.8%
same,"viability, T/C","second compound 0.03 µM, first compound 0.00949 µM",17.4%
same,"viability, T/C","second compound 0.03 µM, first compound 0.03 µM",18.6%
same,"viability, T/C","second compound 0.03 µM, first compound 0.0949 µM",22.4%
same,"viability, T/C","second compound 0.03 µM, first compound 0.3 µM",21.2%
same,"viability, T/C","second compound 0.0949 µM, first compound 0.000949 µM",13.2%
same,"viability, T/C","second compound 0.0949 µM, first compound 0.003 µM",15.9%
same,"viability, T/C","second compound 0.0949 µM, first compound 0.00949 µM",15.7%
same,"viability, T/C","second compound 0.0949 µM, first compound 0.03 µM",17%
same,"viability, T/C","second compound 0.0949 µM, first compound 0.0949 µM",20.2%
same,"viability, T/C","second compound 0.0949 µM, first compound 0.3 µM",23.2%
same,"viability, T/C","second compound 0.3 µM, first compound 0.000949 µM",11.7%
same,"viability, T/C","second compound 0.3 µM, first compound 0.003 µM",15.8%
same,"viability, T/C","second compound 0.3 µM, first compound 0.00949 µM",15.4%
same,"viability, T/C","second compound 0.3 µM, first compound 0.03 µM",21.9%
same,"viability, T/C","second compound 0.3 µM, first compound 0.0949 µM",19.4%
same,"viability, T/C","second compound 0.3 µM, first compound 0.3 µM",22.6%
C=CC(=O)Nc1cc(Nc2nccc(-c3cn(C)c4ccccc34)n2)c(OC)cc1N(C)CCN(C)C + CCn1c(-c2cccnc2C(C)OC)c2c3cc(ccc31)N1CCOC(CC(NC(=O)C(C(C)C)N(C)C(=O)C3(F)CCN(C(=O)C#CC(C)(C)N(C)C)CC3)C(=O)N3CCCC(N3)C(=O)OCC(C)(C)C2)C1,IC50,second compound 0.000949 µM,> 1000 nM
same,IC50,second compound 0.003 µM,> 1000 nM
same,IC50,second compound 0.00949 µM,> 1000 nM
same,IC50,second compound 0.03 µM,> 1000 nM
same,IC50,second compound 0.0949 µM,> 1000 nM
same,IC50,second compound 0.3 µM,> 1000 nM
same,"viability, T/C",[1],104%
same,"viability, T/C",[2],94.9%
same,"viability, T/C",[3],99%
same,"viability, T/C",[4],91%
same,"viability, T/C",[5],101%
same,"viability, T/C",[6],105%
same,"viability, T/C",[7],87.5%
same,"viability, T/C",[8],95.3%
same,"viability, T/C",[9],102%
same,"viability, T/C",[10],93.7%
same,"viability, T/C",[11],113%
same,"viability, T/C",[12],115%
same,"viability, T/C",[13],88.7%
same,"viability, T/C",[14],95.7%
same,"viability, T/C",[15],98.4%
same,"viability, T/C",[16],102%
same,"viability, T/C",[17],117%
same,"viability, T/C",[18],103%
same,"viability, T/C",[19],89.4%
same,"viability, T/C",[20],114%
same,"viability, T/C",[21],92.5%
same,"viability, T/C",[22],98%
same,"viability, T/C",[23],105%
same,"viability, T/C",[24],110%
same,"viability, T/C",[25],104%
same,"viability, T/C",[26],105%
same,"viability, T/C",[27],105%
same,"viability, T/C",[28],107%
same,"viability, T/C",[29],110%
same,"viability, T/C",[30],97.6%
same,"viability, T/C",[31],101%
same,"viability, T/C",[32],99.7%
same,"viability, T/C",[33],106%
same,"viability, T/C",[34],112%
same,"viability, T/C",[35],106%
same,"viability, T/C",[36],101%
